Data from patent publication US20230357248A1, “PYRROLOPYRIMIDINE COMPOUND AS BTK INHIBITOR AND USE THEREOF” (MEDSHINE DISCOVERY INC., priority 2019, published 2023).
pIC50: −log10 of the molar value.

What was measured:
[1] = Plasma protein binding (PPB) assay, D; type: in vitro ADME; details: dog, dialysis 4 hr 37° C.
Method: Assay procedure: 995 μL of blank plasma of various genera were weighed, and 5 μL of assay compound working solution (400 μM) or warfarin working solution (400 μM) was added so that the final concentrations of the assay compound and warfarin in plasma sample were each 2 μM. The samples were mixed thoroughly. The final concentration of DMSO (the organic phase) was 0.5%. 50 μL of the plasma samples of the assay compound and warfarin were pipetted to a sample receiving plate (in triplicate), and the corresponding volume of corresponding blank plasma or buffer was added immediately, so that the final volume in each sample well was 100 μL, wherein the volume ratio of plasma:dialysis buffer was 1:1. 500 μL of stop solution was then added to these samples. These samples were used as T0 samples for determination of recovery and stability. […] All samples were subjected to protein precipitation, and then analyzed by LC/MS/MS. Bound rate and recovery rate of protein were calculated using the following formulae: % Unbound=100*F/T, % Bound=100−% Unbound, % Recovery=100*(F+T)/T0 (wherein F is the peak area ratio of the compound in the dialysate after 4 h of dialysis; T is the peak area ratio of the compound in the plasma after 4 h of dialysis; To is the peak area ratio of the compound in the plasma sample at time zero).

TMD8 cells = test: BTK cell activity assay (CellTiter Glo); type: cell-based; details: Homo sapiens, Cell Titer Glo, read-out: Relative IC50
Method: 1. Cell Culture and Passage
The medium, trypsin and 1×PBS used in the cell passage process were preheated in a 37° C. water bath. The supernatant was aspirated.
1 mL of trypsin was added to rinse, and the rinse solution was aspirated. 1 mL of trypsin was added, respectively, and cells were digested at 37° C. until the cells fell off. 10 mL of culture medium was added and mixed well. The mixture was centrifuged at 1000 rpm for 5 min and the cells were resuspended in 10 mL of culture medium. 0.7 mL of cell suspension was pipetted into a counting cup and counted on ViCell XR to respectively obtain a cell density of 0.327 million/mL. 1.17 mL of cell suspension and culture medium were weighed, respectively, to dilute the cell suspension. According to the microplate layout diagram below, 100 μL of phosphate buffer was added to the peripheral wells of the 384-well microplate, and 40 μL of cell suspension was added to other wells, respectively. The cell plate was then cultured in an incubator.
2. Dosing • (1) Preparation of compound:
A 9 μL dilution of the compound to be assayed was added to a shallow-well plate for Pod (Labcyte, #LP-0200). The shallow-well plate was centrifuged at 2500 rpm for 30 s. • (2) The cell plate was removed from the incubator. • (3) According to the microplate layout diagram below, compounds were serially diluted 3-fold in Pod to obtain 10 concentrations. The diluted compounds were added to the cell plate at 100 nL, respectively, and then the cell plate was returned to the incubator for culture. • 3. At Day 0, 20 μL of CellTiter Glo was added to the plate with DMSO added, and the mixture was shaken in the dark for 10 minutes. The plate was read with Envision. • 4. At Day 5: CTG was added and the plate was read. • (1) After being cultured for 72 h, 20 μL of Cell Titer Glo was added to the cell plate, and the mixture was shaken in the dark for 10 minutes. • (2) The plate was read with Envision.
Assay Results • 1. Average value and standard deviation of 0% inhibition (DMSO well, MAX) and 100% inhibition (day 0, DMSO) in each group were calculated; • 2. […]

[2] = Pharmacokinetic evaluation in SD rat (oral); type: in vivo; details: about 2 mg/kg
[3] = Pharmacokinetic evaluation in CD-1 mouse (oral); type: in vivo; details: 3.1 mg/kg
Method: Assay purpose: To assay the pharmacokinetics of the compound in CD-1 mouse (oral)
Pharmacokinetic study of oral and intravenously injected compound 4 and reference example 1 (compound 005-1) in CD-1 mouse.
Compound 4 and reference example 1 (compound 005-1) were mixed with the solvent (10% NMP/60% PEG400/30% H2O). The mixture was vortexed and sonicated to prepare a clarified solution of 0.6 mg/mL. 7- to 10-week old CD-1 male mice were selected, and the candidate compound solution was administered […] at a dose of 3.1 mg/kg.
Whole blood was collected for a certain period of time to prepare the plasma. Drug concentration was analyzed by LC-MS/MS, and pharmacokinetic parameters were calculated by Phoenix WinNonlin software (Pharsight, USA).

With `CO[C@@H]1C[C@@H](CO)OC[C@@H]1Nc1ncnc2[nH]cc(C(=O)c3ccc(Oc4ccccc4)cc3Cl)c12` [Compound 4] the fraction unbound at 4 h, 2 μM [1] was 0.001, the pIC50 (TMD8 cells) was 6.58 and the AUCu ([2]; AUCu = AUC0-inf * Unbound PPB (in vivo assay of PPB in rat)) was 0.0078 µM·h. It also gave an AUC(0-inf) ([2]; male, plasma) of 3.89 µM·h, a Cmax ([2]; male, plasma) of 587 nM and a bioavailability ([2]; male, plasma) of 57.3%. The half-life ([2]; male, plasma) was 2.33 h, the AUCu ([3]; AUCu = AUC0-inf * Unbound PPB (Mouse)) was 0.133 µM·h and the AUC(0-inf) ([3]; male, plasma) was 33.2 µM·h. It also gave a Cmax ([3]; male, plasma) of 2980 nM, a bioavailability ([3]; male, plasma) of 71.7% and a half-life ([3]; male, plasma) of 3.73 h.
